# PMC9430770 (Microbiology Spectrum, 2022)
# What was measured:
# hEno1 = target: T1, hEno1 (Homo sapiens, UniProt P06733); assay: Enolase activity analysis (absorbance at 240 nm of PEP); format: biochemical
# T1 construct: 6xHis; made in house; host or cells: E. coli BL21(DE3), inferred from 'same procedure' as CaEno1
# Protocol: Enolase activity was determined by direct spectrophotometric assay via measuring the increase of absorbance at 240 nm of phosphoenolpyruvate (PEP) as described previously with some modifications ([54]). Briefly, the reaction buffer (pH 7.0) containing 10 mM imidazole, 200 mM KCl, and 0.5 mM MgAc in a final reaction volume of 100 μL was mixed with Eno1 (a final concentration of 30 nM), followed by the mixture of 2-phosphoglycerate (2-PG) (Yuanye Biotech Shanghai) with a final concentration of 1 mM. The enolase activity of Eno1 was evaluated by measuring the increase of absorbance (OD240) at room temperature for 10 min. […] The well-known enolase inhibitor sodium fluoride (NaF; Sangon Biotech) was initiated from 5 mM and used as a control ([29]). Inhibition curves were fitted by nonlinear regression (four parameters) using the GraphPad Prism software.
# [1] = target: mutant Eno1 (D263A, S269A, and K273A) (Candida albicans, UniProt P30575, D263A/K273A/S269A); assay: SPR binding of BE to mutant Eno1
# Text: SPR, surface plasmon resonance; RU, response unit.
# The benzene ring with hydroxyl group can form a cation-π interaction with K273 (Fig. 6C). To confirm that D263, S269, and K273 play crucial roles in interacting with BE, we have mutated these three amino acids (D263A, S269A, and K273A) in CaEno1.
# [2] = test system: C. albicans eno1/eno1 mutant strain; assay: Galleria mellonella infection model, eno1/eno1 strain; format: in vivo, Candida albicans; details: G. mellonella, 10 mg/kg
# Protocol: To assess whether Eno1 is a therapeutic target of BE, we constructed a homozygous deletion strain for the ENO1 gene (eno1/eno1). We then investigated the difference in the antifungal efficacy of BE on the infections caused by the parent strain SN152 and the eno1/eno1 strain in the Galleria mellonella infection model. We divided the G. mellonella into 5 groups, with 10 larvae in each group. All 10 larvae died after a 24-h infection with the SN152 strain, while only 3 larvae died after 24 h when infected with the eno1/eno1 strain; the remaining larvae died within 7 days. Compared with the group infected with the parent strain, the survival time of the group infected with the eno1/eno1 strain was longer (P < 0.01) (Fig. 4A). […] The survival rate of larvae in the BE (10 mg/kg of body weight)-treated, SN152 strain-infected group was extended by 30%, compared with that in the group infected with the SN152 strain but without antifungal drug treatment (P < 0.001) (Fig. 4B). […] All 10 larvae in the BE-treated group died within 6 days, and all 10 larvae without BE treatment were killed within 7 days (Fig. 4C). However, FLC (10 mg/kg) can extend the survival rate of larvae infected by the eno1/eno1 strain by 60% (P < 0.01) (Fig. 4D) compared with the group infected with the eno1/eno1 strain without antifungal drug treatment.
# (§1) FIG 4 Eno1 acts as a therapeutic target of BE. […] Each curve represents a group of 10 larvae (n =10) monitored daily for survival for up to 10 days after infection. […]
# (§2) Virulence testing of C. albicans was done in Galleria mellonella as described previously ([56]). […] After growth in YPD media overnight at 30°C and 200 rpm, C. albicans SN152 cells or eno1/eno1 mutant cells were washed with PBS 3 times and diluted to the desired concentration (1 × 10^7 cells/mL) determined by counting with a hemacytometer. […] The death of G. mellonella was assessed daily and analyzed statistically by the Kaplan-Meier method (log-rank test).
# C. albicans SC5314 = assay: Spot assay on solid YPD or YPG plates containing BE; format: cell-based, Candida albicans; details: 48 h, 30°C
# Protocol: To test whether BE antifungal activity in C. albicans as well as in mammalian cells was carbon source dependent ([27]), we investigated the activity of BE in spot assays on both solid yeast extract-peptone-dextrose (YPD) (containing 20 mg/mL glucose) and solid YPG (containing 2% [vol/vol] glycerol) media.
# FIG 1 The antifungal activity of BE depends on the carbon source. The overnight-cultured C. albicans SC5314 cells were diluted to 1 × 10^7 cells/mL and used as the initial concentration for four times of 10-fold dilution. Subsequently, 5 μL of a 10-fold dilution series was spotted onto YPD or YPG solid plates containing the indicated different concentrations of BE. After 48 h of incubation at 30°C, pictures of the growth of cells were taken.
# The spotting assay was performed as described previously ([50]). Briefly, after grown overnight, mid-log-phase cultures of strains required for experimental conditions were adjusted to 1 × 10^7 cells/mL using a hemacytometer, then were 1:10 serially diluted in sterile PBS, and were spotted onto indicated plates with an indicated concentration of BE. After 48 h of incubation at 30°C, pictures of the growth of cells were taken.
# C. albicans SN152 = assay: Galleria mellonella infection model, SN152 strain; format: in vivo, Candida albicans; details: G. mellonella, 10 mg/kg
# Protocol: To assess whether Eno1 is a therapeutic target of BE, we constructed a homozygous deletion strain for the ENO1 gene (eno1/eno1). We then investigated the difference in the antifungal efficacy of BE on the infections caused by the parent strain SN152 and the eno1/eno1 strain in the Galleria mellonella infection model. We divided the G. mellonella into 5 groups, with 10 larvae in each group. All 10 larvae died after a 24-h infection with the SN152 strain, while only 3 larvae died after 24 h when infected with the eno1/eno1 strain; the remaining larvae died within 7 days. Compared with the group infected with the parent strain, the survival time of the group infected with the eno1/eno1 strain was longer (P < 0.01) (Fig. 4A). […]
# as §1, §2
# Candida albicans 103 = assay: Checkerboard microdilution assay with fluconazole; format: cell-based
# Text: Ta b l e S3. Interaction of fluconazole ( FLC) and BE probes against isolates of Candida albicans
# Compounds Molecular structure Individual action Interaction MIC(μg/ mL ) FICI Mode of
# MIC (μg /mL) FLC Compounds interaction
# mutant Eno1 (D263A, S269A, and K273A), sequence (P30575 whole entry D263A/S269A/K273A): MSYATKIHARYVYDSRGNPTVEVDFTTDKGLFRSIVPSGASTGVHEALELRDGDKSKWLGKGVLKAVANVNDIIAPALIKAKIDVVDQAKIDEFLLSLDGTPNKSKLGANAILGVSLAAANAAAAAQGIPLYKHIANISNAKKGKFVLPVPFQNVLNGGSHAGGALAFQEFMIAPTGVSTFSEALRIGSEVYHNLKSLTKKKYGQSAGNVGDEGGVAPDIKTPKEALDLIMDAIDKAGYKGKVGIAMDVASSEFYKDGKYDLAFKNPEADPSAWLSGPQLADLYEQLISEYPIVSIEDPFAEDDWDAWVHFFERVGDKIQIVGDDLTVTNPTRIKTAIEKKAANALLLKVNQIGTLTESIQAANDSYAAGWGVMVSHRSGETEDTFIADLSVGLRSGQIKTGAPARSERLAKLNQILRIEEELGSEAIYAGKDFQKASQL
# T1 sequence (P06733 whole entry): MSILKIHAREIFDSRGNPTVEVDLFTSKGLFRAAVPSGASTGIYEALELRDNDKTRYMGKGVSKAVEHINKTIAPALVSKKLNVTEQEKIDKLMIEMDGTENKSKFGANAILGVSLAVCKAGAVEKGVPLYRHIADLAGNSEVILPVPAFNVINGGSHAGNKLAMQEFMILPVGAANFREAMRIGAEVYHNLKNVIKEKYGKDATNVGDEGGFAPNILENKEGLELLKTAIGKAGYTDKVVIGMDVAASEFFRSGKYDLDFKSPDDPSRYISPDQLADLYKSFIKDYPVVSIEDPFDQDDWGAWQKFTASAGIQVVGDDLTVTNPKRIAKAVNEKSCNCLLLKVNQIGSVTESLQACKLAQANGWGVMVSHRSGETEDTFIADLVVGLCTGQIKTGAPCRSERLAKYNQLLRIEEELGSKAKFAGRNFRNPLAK
structure (smiles),measurement,setting,value
"O=c1cc(-c2ccccc2)oc2cc(O)c(O)c(O)c12 [BE, Baicalein]",IC50,hEno1,91.3 ± 3.1 µM
same,binding detected by SPR analysis,[1],no binding
same,survival rate of larvae extended versus infected group without drug treatment,[2],no significant effect
same,time within which all 10 larvae died,[2]; eno1/eno1-infected,≤ 6 days
same,antifungal activity (spot assay),"C. albicans SC5314; 64 μg/mL BE, solid YPD medium (20 mg/mL glucose)",had antifungal activity
same,antifungal activity (spot assay),"C. albicans SC5314; 64 μg/mL BE, solid YPG medium (2% glycerol)",not in solid YPG medium
same,antifungal activity (spot assay),"C. albicans SC5314; 128 μg/mL BE, solid YPD medium",potent antifungal activity
same,growth of C. albicans (spot assay),"C. albicans SC5314; 128 μg/mL BE, solid YPG medium",could still grow
same,survival rate of larvae extended versus infected group without drug treatment,C. albicans SN152,30%
same,Interaction MIC FLC,Candida albicans 103; MIC of FLC in combination with the compound,1 µg/mL
same,Interaction MIC Compounds,Candida albicans 103; MIC of the compound in combination with FLC,1 µg/mL
same,FICI,Candida albicans 103; combination with FLC,0.039
same,Mode of interaction,"Candida albicans 103; combination with FLC, FLC-resistant C. albicans",Synergism
same,Individual action MIC,Candida albicans 103; compound alone,32 µg/mL
